From article PMC8049461, “The anti-depressant effects of a novel PDE4 inhibitor derived from resveratrol” (Pharmaceutical Biology, 2021)

Key:
[1] = test system: mice; assay: Locomotor activity (LA) test, open-field chamber; type: in vivo, male ICR mice; conditions: RES003 at the dose that significantly reduced immobility response, 30 min before test
Protocol: (§1) Male ICR mice, weighing between 22–25 g, were obtained from the Animal Centre at Changzhou University. All experiments were carried out according to the National Institute of Health Guide for Care and Use of Laboratory Animals (1996) and were approved by the Institutional Animal Care and Use Committee of Changzhou University (NO. Y20180023). Fluoxetine and resveratrol were purchased from Sigma Chemical Co. (St Louis, MO). For animal behavioural tests, RES003 and rolipram were dissolved in saline containing 5% DMSO, 5% Solutol and 90% saline. The positive control drug fluoxetine was dissolved simply in saline. Mice were given intra-gastric (i.g.) administration (RES003: 2.5, 5.0 and 10 mg/kg) or intraperitoneal (i.p.) injections (fluoxetine: 5 mg/kg and rolipram: 10 mg/kg) in a volume of 10 mL/kg body weight.
LA test was assessed using an open-field chamber according to previous procedure (Li et al. [2014]). The floor of the chamber was divided into 16 identical squares. Mice were individually placed in the centre of the chamber and allowed to acclimatize for 15 min. Their paws were contacted or disconnected the active bars which can produce random configurations. The locomotor counts of mice were measured by counting the number of line crossings in the following 10 min.

[2] = test system: pCREB/CREB; assay: Western blot of pCREB/CREB in brain tissue of CUS mice; type: in vivo, male ICR mice; conditions: RES003 10 mg/kg, vs model group, p < 0.05
Protocol: as §1
(§2) The chronic unpredictable stress procedure was carried out as described previously with minor modification (Polster and Fiskum [2004]). […]
(§3) After the chronic un-predictable stress (CUS) procedure, sucrose preference test was assessed on the following day, and then forced swimming test (FST) was carried out the next day. […]
(§4) The brain tissues were dissected and stored at −80 °C until analysis after mice were sacrificed. […] The detection and quantification of specific bands were performed using a fluorescence scanner and ‘Image-Pro’ software. […]

[3] = test system: BDNF; assay: Western blot of BDNF expression in brain tissue of CUS mice; type: in vivo, male ICR mice; conditions: RES003 5 and 10 mg/kg, vs model group, p < 0.05 and 0.01
Protocol: as §1, §2, §3, §4

[4] = molecular target: PDE2 (Homo sapiens, UniProt O00408); assay: PDE enzymatic assay (radioactive tracer, 3H-cAMP/3H-cGMP); type: biochemical; conditions: 3H-cAMP or 3H-cGMP substrate, 24 °C, 30 min; read-out: IC50 against PDE2
PDE2, sequence (O00408 whole entry): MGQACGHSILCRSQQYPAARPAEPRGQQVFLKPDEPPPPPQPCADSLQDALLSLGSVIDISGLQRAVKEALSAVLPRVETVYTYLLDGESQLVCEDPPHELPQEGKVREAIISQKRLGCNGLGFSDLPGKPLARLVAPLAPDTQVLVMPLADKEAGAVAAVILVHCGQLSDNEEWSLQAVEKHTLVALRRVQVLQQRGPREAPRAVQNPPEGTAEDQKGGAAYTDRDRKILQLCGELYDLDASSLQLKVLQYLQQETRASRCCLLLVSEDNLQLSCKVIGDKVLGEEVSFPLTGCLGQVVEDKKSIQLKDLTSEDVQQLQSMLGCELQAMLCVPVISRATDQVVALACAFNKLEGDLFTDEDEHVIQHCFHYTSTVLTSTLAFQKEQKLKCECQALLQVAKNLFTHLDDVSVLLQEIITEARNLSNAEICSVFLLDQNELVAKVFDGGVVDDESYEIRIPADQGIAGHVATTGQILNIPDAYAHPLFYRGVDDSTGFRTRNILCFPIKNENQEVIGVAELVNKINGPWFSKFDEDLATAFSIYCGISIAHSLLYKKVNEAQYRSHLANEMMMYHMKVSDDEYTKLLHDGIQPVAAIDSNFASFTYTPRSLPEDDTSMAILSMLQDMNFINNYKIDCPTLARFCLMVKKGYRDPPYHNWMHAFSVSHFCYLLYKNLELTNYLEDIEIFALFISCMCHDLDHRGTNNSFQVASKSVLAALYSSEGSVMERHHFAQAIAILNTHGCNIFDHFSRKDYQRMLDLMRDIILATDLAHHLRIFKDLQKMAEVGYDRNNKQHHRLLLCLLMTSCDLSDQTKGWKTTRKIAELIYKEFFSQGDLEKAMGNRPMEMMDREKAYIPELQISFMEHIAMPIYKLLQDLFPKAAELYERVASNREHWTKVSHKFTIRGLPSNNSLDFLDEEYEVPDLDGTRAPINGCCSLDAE
Protocol: (§5) All the enzymatic activities of PDEs were assayed by using ^3H- cyclic guanosine monophosphate (cGMP) or ^3H-cAMP as the substrate. PDEs were firstly incubated with the reaction mixture of 50 mmol/L Tris-hydrogen chloride (HCl), pH 7.8, 10 mmol/L magnesium chloride (MgCl2) and ^3H-cAMP or ^3H-cGMP (40, 000 cpm/assay) at 24 °C for 30 min. Then, the reaction was terminated by addition of zinc sulfate and barium hydroxide. Activity of test compounds was assessed by measuring the amount of ^3H-cGMP or ^3H-cAMP resulting from enzyme cleavage. The reaction product ^3H-AMP or ^3H-GMP was precipitated by adding barium sulfate, while unreacted ^3H-cAMP or ^3H-cGMP remained in the supernatant. Radioactivity in the supernatant was measured in 2.5 mL of ultima gold liquid scintillation. At least eight concentrations of inhibitors (0.05–500 μM) were used in the presence of suitable substrates for the measurement of half maximal inhibitory concentration IC50 values, which were calculated by non-linear regression. Each measurement was repeated three times.

[5] = test system: PDE1; assay: as above; type: biochemical; conditions: 3H-cAMP or 3H-cGMP substrate, 24 °C, 30 min; read-out: IC50 against PDE1
Protocol: as §5

[6] = test system: PDE3; assay: as above; type: biochemical; conditions: 3H-cAMP or 3H-cGMP substrate, 24 °C, 30 min; read-out: IC50 against PDE3
Protocol: as §5

[7] = molecular target: PDE5 (Homo sapiens, UniProt O76074); assay: as above; type: biochemical; conditions: 3H-cAMP or 3H-cGMP substrate, 24 °C, 30 min; read-out: IC50 against PDE5
Protocol: as §5

[8] = test system: PDE4; assay: as above; type: biochemical; conditions: for IC50: 3H-cAMP or 3H-cGMP substrate, 24 °C, 30 min, read-out: IC50 against PDE4
Protocol: as §5

[9] = test system: chronic unpredictable stress mice; assay: Sucrose preference test (SPT) after chronic unpredictable stress; type: in vivo, male ICR mice; conditions: RES003 5 and 10 mg/kg (medium and large dose), once a day for 10 days, CUS mice, vs model group, p < 0.01
Protocol: as §1, §2, §3
The SPT was performed according to the previous description with minor modification (Yu et al. [2013]). […] The sucrose preference was calculated as the ratio of the consumed sucrose solution to the total amount of liquid consumed.

[10] = test system: chronic unpredictable stress mice; assay: Forced swimming test (FST) after chronic unpredictable stress; type: in vivo, male ICR mice; conditions: fluoxetine 5 mg/kg i.p., CUS mice, p < 0.05
Protocol: as §1, with “Mice were given intra-gastric (i.g.) administration (RES003: 2.5, 5.0 and 10 mg/kg) or intraperitoneal (i.p.) injections (fluoxetine: 5 mg/kg and rolipram: 10 mg/kg) in a volume of 10 mL/kg body weight.” left out
as §3
According to the previous description, animals were individually placed in glass cylinders (25 cm height, 10 cm diameter) containing 10 cm depth of water at 24 ± 1 °C for 6 min, allowing for free swimming (Porsolt et al. [1978]). […] A mouse was determined to be immobile when there were only small movements necessary to keep its head above water. The immobility time was recorded during the 5 min testing period.

locomotor activity (line crossings in 10 min) [1]	IC50 [4]	IC50 [5]	IC50 [6]	IC50 [7]	IC50 [8]	SMILES	ratio of pCREB/CREB in brain tissue [2]	BDNF expression in brain tissue [3]	selectivity for PDE4 over PDE1, PDE2, PDE3 and PDE5 ([8]; ratio of IC50 values)	consumption of sugar water (sucrose preference) [9]	immobility time in forced swimming test [10]
did not affect the locomotor activity	> 100 µM	92.6 ± 8.3 µM	> 100 µM	> 100 µM	0.87 µM	Oc1ccc(-c2cc(-c3cc(O)cc(O)c3)n[nH]2)cc1 [RES003, 5-[5-(4-Hydroxyphenyl)-1H-pyrazol-3-yl]benzene-1,3-diol]	reversed	significantly upregulated	> 100 fold	significantly increase the consumption of sugar water	–
–	–	–	–	–	–	CNCCC(Oc1ccc(C(F)(F)F)cc1)c1ccccc1 (stereo not shown) [fluoxetine, Fluoxetine, reference compound]	–	–	–	–	significant anti-depressant-like effects
–	> 100 µM	8.7 ± 1.1 µM	12.7 ± 2.1 µM	> 100 µM	18.8 µM	Oc1ccc(/C=C/c2cc(O)cc(O)c2)cc1 [resveratrol, Resveratrol]	–	–	–	–	–
